“Also recorded” adds a separate entry of the source.
Columns and labels:
[1] = system: healthy controls (HC) and MDD participants; assay: Cardiovascular safety: blood pressure and heart rate after intravenous DMT; format: in vivo, human
Experimental: (§1) Blood pressure was measured at baseline and 5, 10, 15, 20, 30, 45, 60, and 120 minutes after drug administration. Heart rate and pulse oximetry were measured continuously. Subjective drug effects were measured 60 min before, as well as 30 and 120 min after drug administration.

[2] = system: healthy controls (HC) and MDD participants; assay: Adverse events of the dosing sessions; format: in vivo, human
Description: Given the intensity and brevity of DMT effects, participants were allowed a mostly uninterrupted experience with psychiatrists utilizing a non-directive and supportive approach. Participants were asked how they were feeling at the same time points as the physiological recordings; no psychotherapy was provided. Rescue medications for psychological distress (lorazepam and risperidone) and hypertension (labetalol) were available. Prior to discharge, a field sobriety test and mini-mental status examination were conducted to confirm return to baseline.

[3] = system: healthy controls (HC) and MDD participants; assay: Psychedelic effects, 23-item Psychedelic Effects Visual Analog Scale; format: in vivo, human; details: for Peak change in VAS psychedelic composite score: mean (SD)
Experimental: as §1
(§2) Both the VAS Psychedelic effects, and PSI were measured before dose administration, shortly after resolution of effects, and again near time of discharge. Subjects were instructed to retroactively rate the effects during the peak effects, given that they might not be able to accurately assess and report effects while immersed in the peak effects.

[4] = system: healthy controls (HC) and MDD participants; assay: Psychotomimetic States Inventory (PSI); format: in vivo, human
Experimental: as §2, with “effects. […] In addition to day-after dosing follow up, subjects were contacted 1, 2, and 12 weeks after completion of the last dosing session to follow up on safety and wellbeing.” for “effects.”

[5] = system: healthy controls (HC) and MDD participants; assay: In session VAS anxiety and depression; format: in vivo, human; details: for Peak change in VAS depression: MDD participants only; for Peak change in VAS depression / Peak change in VAS anxiety scale: mean (SD); for Peak change in VAS anxiety scale: all participants
Experimental: as §2, with “effects. […] In addition to day-after dosing follow up, subjects were contacted 1, 2, and 12 weeks after completion of the last dosing session to follow up on safety and wellbeing.” for “effects.”

[6] = system: healthy controls (HC) and MDD participants; assay: Drug desirability / reinforcement and abuse liability measures; format: in vivo, human; details: for monetized value of drug effects (scale from 0-100 dollars): mean (SD)
Experimental: VAS measures of tolerability, willingness to pay for the experience, and likelihood to use DMT were analyzed similarly. […] HAM-D for each dose was compared to baseline using paired t-tests. […] For 23-item VAS psychedelic effects, multiple comparison correction was performed using false discovery rate (FDR) correction for all measures in order to increase statistical power and minimize […] errors (Benjamini and Hochberg, Journal of the Royal Statistical Society. Series B (Methodological) Vol. 57, No. 1 (1995), pp. 289-300). For PSI effects, Bonferroni correction was utilized.

[7] = Serum DMT levels after intravenous DMT hemifumarate; format: in vivo, human; details: IV 0.1 and 0.3 mg/kg; 30 and 60 min after administration
Experimental: FIGS. 19A-19B depict serum DMT levels in healthy control (FIG. 19A) and depression subjects (FIG. 19B) with intravenous administration of DMT hemifumarate, in accordance with some embodiments. Y-axis: serum DMT levels (ng/dl); X-axis: 60 min before DMT administration; and 30 and 60 min after DMT administration. […] Solid line (0.1 mg/kg) and dotted line (0.3 mg/kg).
Referring to FIGS. 19A-19B, the present study further reports for the first-time dose-related serum DMT levels in MDD subjects who received 0.1 and […] of IV DMT. The findings in healthy controls are mostly consistent with other studies and PK models (Callaway et al., J Ethnopharmacol. 1999 June; 65(3):243-56; Gallimore and Strassman, Front. Pharmacol., 14 Jul. 2016). […] Given the increased rigor of the assay for DMT utilized in this study, it is unlikely that the variability observed in MDD subjects is spurious. It may be important to note that while DMT's acute effects had mostly resolved by +30 min time point, it is conceivable that peripheral concentration may differ from the central site of action.

[8] = target: serotonin 5-HT2A receptors (Homo sapiens, UniProt P28223); details: literature; cited from earlier work
Sequence of serotonin 5-HT2A receptors (P28223 whole entry): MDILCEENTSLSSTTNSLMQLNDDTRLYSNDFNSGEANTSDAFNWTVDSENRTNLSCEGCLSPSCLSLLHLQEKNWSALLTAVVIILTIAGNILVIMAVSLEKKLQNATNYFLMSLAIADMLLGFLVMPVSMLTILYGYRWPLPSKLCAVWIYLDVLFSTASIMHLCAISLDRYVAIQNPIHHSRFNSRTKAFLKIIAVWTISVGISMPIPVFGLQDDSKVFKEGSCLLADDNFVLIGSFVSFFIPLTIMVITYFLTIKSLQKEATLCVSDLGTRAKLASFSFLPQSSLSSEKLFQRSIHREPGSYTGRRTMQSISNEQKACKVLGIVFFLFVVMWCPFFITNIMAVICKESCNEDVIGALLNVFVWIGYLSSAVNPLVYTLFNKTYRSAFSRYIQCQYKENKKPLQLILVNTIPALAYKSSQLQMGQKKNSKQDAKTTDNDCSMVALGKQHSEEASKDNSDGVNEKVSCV

healthy volunteers = details: literature, cited from earlier work
[9] = system: healthy controls (HC) and MDD participants; assay: Overall tolerability of test day, visual analog scale; details: for overall tolerability (0=intolerable to 100=well-tolerated): mean (SD)

CN(C)CCc1c[nH]c2ccccc12 [DMT hemifumarate, N,N-dimethyltryptamine hemifumarate]
water solubility (in words) (Water solubility): water-soluble

CN(C)CCc1c[nH]c2ccccc12 [DMT, N,N-dimethyltryptamine]
effect on systolic and diastolic blood pressure, and heart rate ([1]; 0.1 and 0.3 mg/kg IV, no significant dose or dose-time effects): increased
time point with significant increases in heart rate relative to baseline ([1]; post-hoc analyses): +5 minute
oxygen saturation during the serious adverse event ([2]; 0.3 mg/kg IV, measured continuously): 100%
severity of adverse events (in words) ([2]; 0.1 and 0.3 mg/kg IV): mostly mild
clinically relevant psychotic symptoms ([2]; all dosing sessions): None of the participants
number of serious adverse events ([2]; asymptomatic bradycardia and hypotension in a MDD participant after 0.3 mg/kg): one
symptoms in one healthy subject with anticipatory anxiety ([2]; following 0.1 mg/kg, symptoms lasted 10 minutes): lightheadedness, and pallor
heart rate in the serious adverse event ([2]; person, 5 minutes after 0.3 mg/kg IV, dropped from 54): 42 beats per minute
blood pressure in the serious adverse event ([2]; person, 5 minutes after 0.3 mg/kg IV, dropped from 108/60): 71/42
Peak change in VAS psychedelic composite score ([3]; 0.1 mg/kg session): 13.16 (SD 11.91)
Peak change in VAS psychedelic composite score ([3]; 0.3 mg/kg dose): 55.83 (SD 23.89)
Hedge's g, VAS psychedelic composite score dose difference ([3]; 0.3 vs 0.1 mg/kg): 2.2
Peak change in VAS psychedelic composite score, difference between doses ([3]; 95% CI 33.30 to 52.03, p<0.0001): 42.67
number of the 23 VAS psychedelic items with significant dose-related differences ([3]; FDR correction, q=0.05): 16
duration of acute effects / resolution after injection ([3]; IV): 20 to 30 min
time by which acute psychedelic effects completely subsided ([3]; IV push): ≤ 30 min
time of peak of acute psychedelic effects after dosing ([3]; IV push): 5 to 10 min
Mean peak change in Psychotomimetic States Inventory (PSI) scale total score ([4]; 0.1 mg/kg session, mean (SD)): 7.33 (SD 7.62)
Mean peak change in Psychotomimetic States Inventory (PSI) scale total score ([4]; 0.3 mg/kg session): 31.67 (16.57)
Hedge's g, PSI total score dose difference ([4]; 0.3 vs 0.1 mg/kg): 1.89
PSI total score peak change, difference between doses ([4]; 95% CI 12.74 to 35.94, p=0.001): 24.33
Peak change in VAS anxiety, difference between doses ([5]; 95% CI −14.30 to 68.53, p=0.26): 27.11
Peak change in VAS depression, difference between doses ([5]; 95% CI −41.47 to 57.47, p=0.92): 8.00
Peak change in VAS depression ([5]; 0.1 mg/kg session): 6.83 (SD 28.94)
Peak change in VAS depression ([5]; 0.3 mg/kg session): 14.83 (SD 37.79)
Peak change in VAS anxiety scale ([5]; 0.1 mg/kg session): 2.56 (SD 31.8)
Peak change in VAS anxiety scale ([5]; 0.3 mg/kg session): 29.67 (SD 39.96)
monetized value of drug effects (scale from 0-100 dollars) ([6]; 0.1 mg/kg session): 25.56 (SD 29.07) dollars
monetized value of drug effects (scale from 0-100 dollars) ([6]; 0.3 mg/kg session): 24.78 (SD 33.36) dollars
willingness to use DMT, difference between doses ([6]; 95% CI −16.74 to 13.62, p=0.90): −1.56
monetized value of drug effects, difference between doses ([6]; 95% CI −32.38 to 33.94, p=0.89): −0.78
abuse potential (in words) ([6]; intravenous): low abuse potential
serum DMT levels in MDD subjects compared with healthy controls (in words) [7]: can have higher serum DMT levels; also recorded: greater variability
activity at serotonin 5-HT2A receptors (in words) [8]: agonist activity
tolerability in healthy controls (in words) (healthy volunteers; doses ranging from 0.05-0.4 mg/kg): well-tolerated
time to emergence of effects after intravenous administration (healthy volunteers; healthy volunteers): ≤ 2 min
dose above which psychedelic effects emerge (healthy volunteers; intravenous, healthy volunteers): higher than 0.2 mg/kg
time to full resolution of effects (healthy volunteers; intravenous): about 30 minutes
water solubility (in words) (Water solubility): not water soluble
overall tolerability (0=intolerable to 100=well-tolerated) ([9]; 0.1 mg/kg IV dose session): 89.80 (SD 12.95)
overall tolerability (0=intolerable to 100=well-tolerated) ([9]; 0.3 mg/kg IV dose session): 71.11 (SD 24.52)
overall tolerability, difference between dose sessions ([9]; 0.3 vs 0.1 mg/kg, 95% CI −32.81 to −2.75, p=0.026): −17.78
tolerability (in words) ([9]; IV, HC and MDD participants): tolerated by both HC (n=3) and MDD participants (n=7); also recorded: well tolerated by both MDD patients and HC individuals
